The values below are quoted from earlier work in US8557989B2, “Electrochemical affinity biosensor system and methods” (priority 2003, dated 2013).

The series has as its target glucose oxidase (Aspergillus niger, UniProt P13006). The note with it: with glucose oxidase.

Sequence of glucose oxidase (P13006 17-605): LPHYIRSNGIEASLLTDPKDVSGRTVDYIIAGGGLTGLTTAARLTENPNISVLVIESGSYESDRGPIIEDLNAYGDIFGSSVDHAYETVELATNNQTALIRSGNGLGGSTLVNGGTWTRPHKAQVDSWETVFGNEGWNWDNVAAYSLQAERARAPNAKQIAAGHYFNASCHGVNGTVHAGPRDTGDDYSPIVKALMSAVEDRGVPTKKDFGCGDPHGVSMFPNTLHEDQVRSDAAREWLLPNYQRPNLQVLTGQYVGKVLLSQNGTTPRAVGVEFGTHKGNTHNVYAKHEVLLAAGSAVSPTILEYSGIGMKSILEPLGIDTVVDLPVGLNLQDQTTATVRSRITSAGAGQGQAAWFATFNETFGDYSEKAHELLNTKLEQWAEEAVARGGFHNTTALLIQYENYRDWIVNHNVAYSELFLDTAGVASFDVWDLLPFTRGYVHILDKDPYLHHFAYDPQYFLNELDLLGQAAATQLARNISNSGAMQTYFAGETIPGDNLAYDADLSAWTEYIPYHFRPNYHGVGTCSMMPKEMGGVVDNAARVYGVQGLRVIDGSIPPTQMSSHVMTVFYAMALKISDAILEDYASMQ

For the substance “bis(2,2′-bipyridyl) imidazole chloro osmium (III) dichloride [osmium free mediator]”, the “mediation kinetics, times faster than ferricyanide” value is reported as “about 500 times”.
